# Laboratory results as given in patent publication EP0320095A2, “Bilirubin degrading enzymes” (HEALTH & RESEARCH SERVICES INC., priority 1987, dated 1989).
# Columns and labels:
# lime enzyme preparation [1] = test: Effects of common enzyme cofactors on the lime enzyme; type: biochemical, Citrus aurantifolia; details: 1 mM final concentration
# Method: (§1) For the orange enzyme preparation, however, 1mM ATP inhibited the activity by almost 50%.
# [2] = system: orange enzyme preparation; test: Effects of common enzyme cofactors on the orange enzyme; type: biochemical, Citrus sinensis; details: 1mM
# Method: as §1
# lime enzyme preparation [3] = test: Effect of common blood components on the lime enzyme reaction; type: biochemical, Citrus aurantifolia
# Method: The bilirubin-degrading assay as described in Example 2 was carried out using a lime enzyme preparation obtained as described in Example 1. Urate (at either 1.2 mM or 297 µM) and creatinine (88.4 and 176.8 µM) in a serum-based matrix had no effect on either the rate or extent of bilirubin degradation by the Citrus enzyme. […] Tests that are interfered severely by bilirubin include e.g. uric acid, cholesterol, glucose, triglycerides, to mention just a few (See for example, Spain and Wu, Clin. Chem. 32:518, 1986). Also, in practice, one will use much higher levels of the enzyme than those used here (5-10 µL/assay, representing about 0.1-0.2 mg protein). In such cases, the effects on initial rates will most likely be overcome or reduced to well within tolerable limits.
# [4] = system: orange enzyme preparation; test: Effect of common blood components on the orange enzyme reaction; type: biochemical, Citrus sinensis
# Method: The bilirubin-degrading assay as described under (A) was carried out using an orange enzyme preparation obtained as described in Example 1. […] It is to be noted that the amount of enzyme used for removing interferences can be increased, if desired, to speed up the process. […]
smiles,measurement,setting,value
Nc1ncnc2c1ncn2[C@@H]1O[C@H](COP(=O)(O)OP(=O)(O)O)[C@@H](O)[C@H]1O [ADP],effect on the enzyme in the normal bilirubin-degrading assay,lime enzyme preparation [1],no demonstrable effect
Nc1ncnc2c1ncn2[C@@H]1O[C@H](COP(=O)(O)O)[C@@H](O)[C@H]1O [AMP],effect on the enzyme in the normal bilirubin-degrading assay,lime enzyme preparation [1],no demonstrable effect
Nc1ncnc2c1ncn2[C@@H]1O[C@H](COP(=O)(O)OP(=O)(O)OP(=O)(O)O)[C@@H](O)[C@H]1O [ATP],effect on the enzyme in the normal bilirubin-degrading assay,lime enzyme preparation [1],no demonstrable effect
same,activity inhibited,[2],~50%
NC(=O)C1=CN([C@@H]2O[C@H](COP(=O)(O)OP(=O)(O)OC[C@H]3O[C@@H](n4cnc5c(N)ncnc54)[C@H](O)[C@@H]3O)[C@@H](O)[C@H]2O)C=CC1 [NADH],effect on the enzyme in the normal bilirubin-degrading assay,lime enzyme preparation [1],no demonstrable effect
NC(=O)c1ccc[n+]([C@@H]2O[C@H](COP(=O)([O-])OP(=O)(O)OC[C@H]3O[C@@H](n4cnc5c(N)ncnc54)[C@H](O)[C@@H]3O)[C@@H](O)[C@H]2O)c1 [NAD],effect on the enzyme in the normal bilirubin-degrading assay,lime enzyme preparation [1],no demonstrable effect
Oc1nc(O)c2nc(O)[nH]c2n1 [Urate],effect on the rate or extent of bilirubin degradation,lime enzyme preparation [3]; at either 1.2 mM or 297 µM in a serum-based matrix,no effect
CC(C)CCC[C@@H](C)[C@H]1CC[C@H]2[C@@H]3CC=C4C[C@@H](O)CC[C@]4(C)[C@H]3CC[C@]12C [cholesterol],effect on reaction extent,"lime enzyme preparation [3]; 30-40 min. incubation, serum-like matrix",not significantly affected
same,slow down of the initial rate of the enzymic reaction on unconjugated bilirubin,lime enzyme preparation [3]; elevated levels (cholesterol e.g. 11 mM or 400 mg/dL),10-20%
same,"overall yield of the enzymic reaction, of the control value",[4]; elevated cholesterol,90-95%
same,initial rate retarded,"[4]; elevated levels, for example at 10mM",10-20%
NC(N)=O [urea],effect on the reaction of the orange enzyme,[4]; water-soluble serum analytes,largely unaffected
